Data on 15 molecules can be found in ChEMBL document CHEMBL1149878, “Tetramic and tetronic acids: an update on new derivatives and biological aspects” (Bioorg Med Chem, 2008).

Broadly, the IC50 is the concentration that inhibits the measured activity by half. A higher IC50 goes with weaker potency. The term MIC denotes the least concentration at which growth counts as inhibited. The term Kd denotes the concentration at which binding is half-saturated. High values mean a looser complex, low ones a tighter complex. The IC90 is the concentration at which the effect reaches the 90% level. Low values mean greater potency, high ones weaker potency.

In brackets after ≈: the same amount, converted by molar mass. Where a SMILES comes first, the peptide text is derived from it. [ ]: non-standard residue; d: D form. The star is where a group is joined. X1 = COC1=CC(=O)N(C(=O)[C@@H](O*)C(C)C)[C@H]1Cc1ccccc1; NMe2Val = CC(C)[C@@H](C(=O)*)N(C)C; NMeV = CN[C@H](C(=O)O)C(C)C

The nature of series [1]: Toxicity in rat. The series is classed as organism-based. The note with it: in vivo, read-out: LC50 (the source's name).
Series [2] relates to P388. Briefly: Growth inhibition of mouse P388 cells by MTT assay after 24 hrs. It is filed as functional, cell-based. The note with it: P388, 24 h. On the technique in general: Formazan colour is commonly taken as a measure of viable cells.
Series [3] has as its system Bel-7402. Nature of the series: Growth inhibition of human Bel7402 cells by MTT assay after 24 hrs. The series is classed as functional, cell-based. As to conditions: Bel-7402, 24 h.
The subject of series [4] is A549. Nature of the series: Growth inhibition of human A549 cells by MTT assay after 24 hrs. The series is classed as functional, cell-based. The note with it: A549, 24 h.
In series [5] the test system is L929. Briefly: Growth inhibition of mouse L929 cells. It is filed as cell-based.
Series [6] concerns HeLa. Briefly: Growth inhibition of human HeLa cells. It is filed as functional, cell-based.
The nature of series [7]: Growth inhibition of human KB3-1 cells. It is filed as functional, cell-based. The note with it: KB 3-1.
The test system of series [8] is A498. Briefly: Growth inhibition of human A498 cells. It is filed as functional, cell-based.
For series [9], the system named is Plasmodium falciparum. Briefly: Antiplasmodial activity against Plasmodium falciparum after 72 hrs. It is filed as functional, organism-based.
Series [10] deals with Human immunodeficiency virus type 1 integrase (Human immunodeficiency virus 1, UniProt Q7ZJM1). Nature of the series: Inhibition of HIV1 integrase strand transfer activity.
The test system of series [11] is Staphylococcus aureus. Briefly: Growth inhibition of multidrug resistant Staphylococcus aureus. The series is classed as functional, organism-based.
In series [12] the test system is Enterococcus. Nature of the series: Growth inhibition of multidrug resistant Enterococcus. It is filed as functional.
In series [13] the test system is Staphylococcus aureus. Briefly: Antimicrobial activity against methicillin-resistant Staphylococcus aureus F597. The series is classed as functional.
Series [14] concerns Staphylococcus aureus. Briefly: Antimicrobial activity against Staphylococcus aureus. The series is classed as functional.
For series [15], the system named is Escherichia coli. Nature of the series: Antimicrobial activity against Escherichia coli. The series is classed as functional.
Series [16] is described as follows: Inhibition of Escherichia coli MurB.
Series [17] relates to Enterococcus faecalis. Nature of the series: Growth inhibition of multidrug resistant Enterococcus faecalis. The series is classed as functional, organism-based.
Series [18] is described as follows: Selectivity for cdc25B over VHR.
Series [19] deals with M-phase inducer phosphatase 2 (Homo sapiens, UniProt P30305). Briefly: Inhibition of cdc25B.
Series [20] deals with Enterococcus faecalis. Briefly: Antimicrobial activity against Enterococcus faecalis. The series is classed as functional.
Series [21] relates to Bacteroides fragilis. Briefly: Antimicrobial activity against Bacteroides fragilis. The series is classed as functional.
In series [22] the test system is Streptococcus equinus. Nature of the series: Antimicrobial activity against Streptococcus bovis A5169. It is filed as functional.
For series [23], the system named is Legionella. Briefly: Antimicrobial activity against Legionella. The series is classed as functional.
Series [24] has as its system Streptococcus pyogenes. Briefly: Antimicrobial activity against Streptococcus pyogenes 930. The series is classed as functional.
In series [25] the test system is Enterococcus. Briefly: Antimicrobial activity against Enterococcus. It is filed as functional.
Series [26] concerns XF498. Nature of the series: Cytotoxicity against human XF498 cells. The series is classed as functional, cell-based.
Series [27] concerns HCT-15. Nature of the series: Cytotoxicity against human HCT15 cells. The series is classed as functional, cell-based.
The test system of series [28] is SK-OV-3. Briefly: Cytotoxicity against human SK-OV-3 cells. It is filed as functional, cell-based.
In series [29] the test system is SK-MEL-2. Nature of the series: Cytotoxicity against human SK-Mel-2 cells. The series is classed as functional, cell-based.
The subject of series [30] is A549. Briefly: Cytotoxicity against human A549 cells. It is filed as functional, cell-based.

Sequence of Human immunodeficiency virus type 1 integrase (Q7ZJM1 whole entry): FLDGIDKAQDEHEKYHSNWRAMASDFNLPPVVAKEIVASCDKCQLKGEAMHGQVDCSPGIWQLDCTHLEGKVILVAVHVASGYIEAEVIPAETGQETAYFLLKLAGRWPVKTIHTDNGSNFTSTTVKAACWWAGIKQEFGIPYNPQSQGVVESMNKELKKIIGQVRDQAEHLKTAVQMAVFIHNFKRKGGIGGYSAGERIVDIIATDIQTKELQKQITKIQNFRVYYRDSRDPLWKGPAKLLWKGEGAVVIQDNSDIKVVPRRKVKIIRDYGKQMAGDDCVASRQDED
Sequence of M-phase inducer phosphatase 2 (P30305 whole entry): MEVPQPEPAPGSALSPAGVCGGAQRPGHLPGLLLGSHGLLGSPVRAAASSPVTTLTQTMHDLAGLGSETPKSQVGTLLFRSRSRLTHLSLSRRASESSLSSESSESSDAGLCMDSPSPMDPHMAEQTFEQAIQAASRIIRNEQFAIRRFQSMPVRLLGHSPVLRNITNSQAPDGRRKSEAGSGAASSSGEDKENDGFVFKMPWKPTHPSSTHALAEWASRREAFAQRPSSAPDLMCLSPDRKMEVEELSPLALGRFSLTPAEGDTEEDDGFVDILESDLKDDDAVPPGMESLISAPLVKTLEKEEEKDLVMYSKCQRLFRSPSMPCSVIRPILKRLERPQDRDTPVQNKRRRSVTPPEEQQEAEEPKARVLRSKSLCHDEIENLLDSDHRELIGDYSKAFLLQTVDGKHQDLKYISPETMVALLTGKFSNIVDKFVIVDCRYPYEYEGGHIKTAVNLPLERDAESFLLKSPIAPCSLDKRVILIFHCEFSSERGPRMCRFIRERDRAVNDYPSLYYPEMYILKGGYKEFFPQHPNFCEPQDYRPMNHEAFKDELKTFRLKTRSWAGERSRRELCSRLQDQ

Take `CC(=O)C1=C(O)[C@@H]2[C@H]3c4c[nH]c5cccc(c45)C[C@H]3C(C)(C)N2C1=O` [CYCLOPIAZONIC ACID]: the LD50 in series [1] came out at 30 mg/kg.
On to `CCCCCCC(C)/C(O)=C1\C(=O)[C@@H]([C@@H](C)O)N(C)C1=O` (stereo partly drawn) [PENICILLENOL A2], for which the IC50 in [2], in series [3] and in [4] was over 100 µM each time.
Consider `CCCCCCCC(C)CCC/C(O)=C1\C(=O)C(C)N(C)C1=O` (stereo not drawn) [MELOPHLIN C], for which the concentration for half-maximal inhibition (IC50) in [5], in series [6], in series [7] and in series [8] was under 10 µM in each case.
Take `COC1=CC(=O)N(C(=O)[C@@H](OC(=O)[C@@H]2CCCN2C(=O)[C@@H]2CCCN2C(=O)[C@H](C(C)C)N(C)C(=O)[C@@H](NC(=O)[C@H](C(C)C)N(C)C)C(C)C)C(C)C)[C@H]1Cc1ccccc1` [DOLASTATIN 15] (NMe2Val-V[NMeV]PP-X1): the 50% inhibitory concentration (IC50) in series [9] came out at 200 nM.
`C/C=C1\C(=O)/C(=C(/O)C(C)CCCCCC)C(=O)N1C` (stereo not drawn) [PENICILLENOL B2]: the 50% inhibitory concentration (IC50) in series [2], in series [3] and in [4] was over 100 µM in each case.
For `CC1=C[C@@H]2CC[C@@H](O)[C@H](C)[C@@H]2[C@@H](C(=O)C2=C(O)C(O)NC2=O)[C@@H]1C[C@H]1O[C@@]2(CC[C@H](C)[C@@H](c3cc(O)cc(O)c3)O2)[C@@H](C)C[C@@H]1C` (stereo partly drawn) [INTEGRAMYCIN], in series [10], the midpoint of inhibition, the IC50, lay at 4 µM.
`C/C=C/C=C/[C@@H]1C(C)=C[C@@H]2C[C@H](C)CC[C@H]2[C@]1(C)/C(O)=C1\C(=O)N[C@@H]([C@H](C)O)C1=O` [CONIOSETIN]: the minimum inhibitory concentration (MIC) is 0.3 µg/mL (≈ 0.725 µM) in series [11] and 2.5 µg/mL (≈ 6.05 µM) in series [12].
In turn, `CC1=C[C@H]2[C@H](O)CC[C@@](C)(/C(O)=C3/C(=O)CNC3=O)[C@H]2C[C@@H]1CCC(C)C(O)/C(C)=C/CC(O)/C=C/C(C)C(O)/C=C/CC(O)/C=C/CC(O)CC1CCCN1C(=N)N` (stereo partly drawn) [TPU-0037 A] returned a minimal inhibitory concentration (MIC) in series [13] of 3.13 µg/mL (≈ 3.79 µM).
As for `O=C1O/C(=C\c2cccc3ccccc23)C(O)=C1c1cc(Cl)cc(Cl)c1`, the MIC in series [14] and in series [15] was 1 µg/mL (≈ 2.61 µM) each time. Besides, the IC50 in series [16] was found to be 21 µM. In series [16], this molecule yielded a Kd of 40 nM.
Regarding `C[C@@H]1CC[C@@H]2[C@H](C=C[C@@H](C)[C@@]2(C)/C(O)=C2/C(=O)[C@H]([C@H](C)O)N(C)C2=O)C1`, the values for the IC50 in [11] and in series [17] were 10 µg/mL (≈ 27.7 µM) and 20 µg/mL (≈ 55.3 µM), respectively. This molecule also displayed a 90% effect concentration (IC90) in series [6] of 7.1 µg/mL (≈ 19.6 µM).
Take `CCCCCCCCCCCCCCCC(=O)C1=C(O)[C@@H](COC(=O)N=C=NC(=O)OCC)OC1=O`: in [18], the Selectivity ratio stood at 30. The molecule also came in with a 50% inhibitory concentration (IC50) in series [19] of 400 nM.
With `C/C(=C\CC(O)CC(O)CCC(C)C(O)C(C)C(O)CCCC(O)C(C)C(O)/C(C)=C/C(C)C(=O)/C(C)=C/C(O)C(O)CC(O)CC(OC1OC(C)C(O)C(N)C1O)C(C)CCC(O)CC(O)CCC(C)C(O)C(C)C(O)C(C)C)C(=O)C1=C(O)/C(=C/C(C)C)N(C)C1=O` (stereo not drawn) [VANCORESMYCIN], the MIC in series [20] was 0.3 µg/mL (≈ 0.223 µM); in [14], under 0.04 µg/mL.
Turning to `CC(C)CCCCCCCCCCC/C(O)=C1\C(=O)C(C)N(C)C1=O` (stereo not drawn) [MELOPHLIN Q], the 50% inhibitory concentration (IC50) in series [8] is 3.4 µM.
As for `CC(/C=C/C(O)=C1/C(=O)CNC1=O)=C\[C@@H](C)[C@H]1O[C@@]2(C)O[C@@H](C=C[C@@]23CO3)[C@H]1C` [TIRANDALYDIGIN], the minimal inhibitory concentration (MIC) is 0.5 µg/mL (≈ 1.25 µM) in [21]; 12.5 µg/mL (≈ 31.1 µM) in series [22]; over 32 µg/mL in [23]; 3.1 µg/mL (≈ 7.72 µM) in series [24]; over 16 µg/mL in series [25].
`C=C1C=C(CCC/C(C)=C/C=C/[C@H](C)CC/C=C(/C)CC2OC(=O)C(C)=C2O)C(=O)N1CCC(C)C` (stereo partly drawn) [(R)-SARCOTRINE A]: the IC50 in series [26], in [27], in [28], in [29] and in series [30] was 3.4 µg/mL (≈ 6.86 µM) in each case.
